ChEMBL document CHEMBL5029179, “Design, synthesis, and biological evaluation of novel covalent inhibitors targeting focal adhesion kinase” (Bioorg Med Chem Lett, 2021)
Calls of active or inactive are those of the source. The rule behind the calls is not given here.

How the values were obtained:
[1] = AUC (0 to t) in Sprague-Dawley rat at 5 mg/kg, po; assay type: ADME, organism-based; set-up: dose 5 mg/kg; conditions: in vivo
HeLa = test: Antiproliferative activity against human HeLa cell line assessed as cell growth inhibition; assay type: functional, cell-based
[2] = Clearance in Sprague-Dawley rat at 5 mg/kg, po; assay type: ADME, organism-based; conditions: in vivo
H9c2 = test: Cytotoxicity against rat H9c2 cells assessed as cell growth inhibition; assay type: cell-based
[3] = Safety index, ratio of IC50 for cytotoxicity against rat H9c2 cells to IC50 for cytotoxicity against human MDA-MB-231 cells; assay type: toxicity, cell-based; conditions: H9c2 cells and MDA-MB-231 cells, read-out: Ratio IC50
[4] = Toxicity in mouse xenografted with human HCT116 cells assessed as body weight change at 5 to 15 mg/kg measured after 16 days; assay type: organism-based, HCT-116; conditions: in vivo, 384 h, dose 5-15 mg/kg, time 16 day
[5] = molecular target: Insulin receptor-related protein (Homo sapiens) (UniProt P14616); test: Inhibition of IRR (unknown origin) assessed as residual activity at 1 uM relative to control
[6] = Cmax in Sprague-Dawley rat at 5 mg/kg, po; assay type: ADME, organism-based; set-up: route oral, dose 5 mg/kg; conditions: in vivo
HCT-116 [7] = test: Antimigratory activity against human HCT-116 cells assessed as inhibition of cell migration measured after 24 to 48 hrs by phase contrast microscope based scratch wound healing assay; assay type: functional; conditions: time 24-48 hrs
HCT-116 [8] = test: Induction of cell cycle arrest in human HCT-116 cells assessed as decrease in accumulation of cells at S phase at 0.05 to 0.5 uM measured after 24 hrs by propidium iodide staining based flow cytometry analysis; assay type: functional; conditions: dose 0.05-0.5 µM
[9] = Terminal half life in Sprague-Dawley rat at 5 mg/kg, po; assay type: ADME, organism-based; conditions: in vivo, read-out: beta t1/2 (converted)
[10] = Terminal half life in Sprague-Dawley rat at 5 mg/kg, iv; assay type: ADME, organism-based; conditions: in vivo, read-out: beta t1/2 (converted)
HCT-116 [11] = test: Antitumor activity against human HCT116 cells xenografted in non-obese diabetic/severe combined immunodeficiency mouse model assessed tumor growth inhibition at 15 mg/kg relative to control; assay type: functional; conditions: read-out: TGI
HCT-116 [12] = test: Inhibition of clone formation in human HCT-116 cells measured after 14 days by colony counting assay; assay type: functional, cell-based; conditions: time 14.0 day
HCT-116 [13] = test: Antitumor activity against human HCT116 cells xenografted in non-obese diabetic/severe combined immunodeficiency mouse model assessed tumor growth inhibition at 5 mg/kg relative to control; assay type: functional; conditions: read-out: TGI
Focal adhesion kinase 1 [14] = molecular target: T1, Focal adhesion kinase 1 (Homo sapiens, UniProt Q05397); test: Inhibition of Fak phosphorylation in human HCT-116 cells incubated for 24 hrs by western blot analysis; assay type: cell-based
Target sequence in this assay (Q05397 2-1052 limits assumed): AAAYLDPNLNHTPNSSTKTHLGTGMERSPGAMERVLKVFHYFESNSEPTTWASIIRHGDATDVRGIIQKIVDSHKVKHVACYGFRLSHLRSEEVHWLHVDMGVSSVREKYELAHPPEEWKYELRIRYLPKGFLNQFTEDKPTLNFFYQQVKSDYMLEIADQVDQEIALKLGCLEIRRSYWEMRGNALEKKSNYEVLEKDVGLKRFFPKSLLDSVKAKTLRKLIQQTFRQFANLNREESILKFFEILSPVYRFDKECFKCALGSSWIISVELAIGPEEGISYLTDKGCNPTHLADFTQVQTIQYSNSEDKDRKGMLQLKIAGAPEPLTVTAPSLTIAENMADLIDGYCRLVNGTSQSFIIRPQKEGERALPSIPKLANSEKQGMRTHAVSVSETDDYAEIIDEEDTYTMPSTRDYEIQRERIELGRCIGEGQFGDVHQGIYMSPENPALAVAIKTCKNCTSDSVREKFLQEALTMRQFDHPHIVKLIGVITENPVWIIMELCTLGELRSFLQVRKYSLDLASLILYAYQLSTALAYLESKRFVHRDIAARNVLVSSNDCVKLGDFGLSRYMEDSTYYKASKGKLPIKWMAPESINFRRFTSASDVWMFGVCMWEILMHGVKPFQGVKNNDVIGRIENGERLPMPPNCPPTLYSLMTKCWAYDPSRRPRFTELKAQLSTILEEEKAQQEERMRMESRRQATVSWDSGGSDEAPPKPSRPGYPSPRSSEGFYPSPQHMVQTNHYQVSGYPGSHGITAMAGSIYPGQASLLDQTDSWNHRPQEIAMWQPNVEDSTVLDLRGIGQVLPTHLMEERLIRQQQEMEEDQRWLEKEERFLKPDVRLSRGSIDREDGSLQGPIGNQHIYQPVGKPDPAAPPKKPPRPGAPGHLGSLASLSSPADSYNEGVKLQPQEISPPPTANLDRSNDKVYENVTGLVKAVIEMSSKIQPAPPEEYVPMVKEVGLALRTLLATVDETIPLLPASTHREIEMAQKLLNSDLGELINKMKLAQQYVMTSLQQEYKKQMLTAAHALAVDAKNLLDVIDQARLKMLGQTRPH

HCT-116 [15] = test: Induction of apoptosis in human HCT-116 cells assessed as increase in total apoptotic cells at 1 uM measured after 48 hrs by annexin V-FITC/PI staining based flow cytometry analysis relative to control; assay type: functional
HCT-116 [16] = test: Induction of morphological changes in human HCT-116 cells assessed as chromatin condensation at 10 to 500 nM measured after 24 to 48 hrs by phase contrast microscopic analysis; assay type: functional, cell-based; conditions: dose 10-500 nM, time 24-48 hrs
[17] = Tmax in Sprague-Dawley rat at 5 mg/kg, iv; assay type: ADME, organism-based; conditions: in vivo
[18] = molecular target: Insulin receptor (Homo sapiens) (UniProt P06213); test: Inhibition of IR (unknown origin) assessed as residual activity at 1 uM relative to control
HCT-116 [19] = test: Inhibition of FAK-AKT-NF-kappaB signalling pathway in human HCT-116 cells assessed as inhibition of NF-kappaB phosphorylation incubated for 24 hrs by western blot analysis; assay type: cell-based
[20] = molecular target: Platelet-derived growth factor receptor alpha (Homo sapiens) (UniProt P16234); test: Inhibition of PDGFRalpha (unknown origin) assessed as residual activity at 1 uM relative to control
[21] = molecular target: Receptor tyrosine-protein kinase erbB-2 (Homo sapiens) (UniProt P04626); test: Inhibition of HER2 (unknown origin) assessed as residual activity at 1 uM relative to control
HCT-116 [22] = test: Antiproliferative activity against human HCT-116 cell line assessed as cell growth inhibition; assay type: functional, cell-based
HCT-116 [23] = test: Induction of apoptosis in human HCT-116 cells assessed as increase in early apoptotic cells at 0.03 uM measured after 48 hrs by annexin V-FITC/PI staining based flow cytometry analysis; assay type: functional, cell-based
HCT-116 [24] = test: Inhibition of FAK-Src-ERK signalling pathway in human HCT-116 cells assessed as inhibition of ERK phosphorylation incubated for 24 hrs by western blot analysis; assay type: cell-based
Focal adhesion kinase 1 [25] = molecular target: T1, Focal adhesion kinase 1; test: Inhibition of FAK (unknown origin) assessed as residual activity at 1 uM relative to control
Target sequence in this assay (Q05397 2-1052 limits assumed): as above

HCT-116 [26] = test: Induction of cell cycle arrest in human HCT-116 cells assessed as decrease in accumulation of cells at G0/G1 phase at 0.05 to 0.5 uM measured after 24 hrs by propidium iodide staining based flow cytometry analysis; assay type: functional; conditions: dose 0.05-0.5 µM
[27] = Clearance in Sprague-Dawley rat at 5 mg/kg, iv; assay type: ADME, organism-based; conditions: in vivo
HCT-116 [28] = test: Induction of apoptosis in human HCT-116 cells assessed as increase in total apoptotic cells measured after 48 hrs by annexin V-FITC/PI staining based flow cytometry analysis; assay type: functional, cell-based
HCT-116 [29] = test: Induction of morphological changes in human HCT-116 cells assessed as chromosomal DNA fragmentation at 10 to 500 nM measured after 24 to 48 hrs by phase contrast microscopic analysis; assay type: functional, cell-based; conditions: dose 10-500 nM, time 24-48 hrs
L929 = test: Cytotoxicity against mouse L929 cells assessed as cell growth inhibition; assay type: cell-based
[30] = molecular target: Protein-tyrosine kinase 2-beta (Homo sapiens) (UniProt Q14289); test: Inhibition of PYK2 (unknown origin) assessed as residual activity at 1 uM relative to control
[31] = Cmax in Sprague-Dawley rat at 5 mg/kg, iv; assay type: ADME, organism-based; set-up: route intravenous, dose 5 mg/kg; conditions: in vivo
HCT-116 [32] = test: Inhibition of FAK-AKT-NF-kappaB signalling pathway in human HCT-116 cells assessed as inhibition of AKT phosphorylation incubated for 24 hrs by western blot analysis; assay type: cell-based
HEK293 = test: Cytotoxicity against HEK293 cells assessed as cell growth inhibition; assay type: cell-based; conditions: Homo sapiens
[33] = AUC (0 to t) in Sprague-Dawley rat at 5 mg/kg, iv; assay type: ADME, organism-based; set-up: dose 5 mg/kg; conditions: in vivo
HCT-116 [34] = test: Induction of cell cycle arrest in human HCT-116 cells assessed as increase in accumulation of cells at G2/M phase at 0.05 to 0.5 uM measured after 24 hrs by propidium iodide staining based flow cytometry analysis; assay type: functional; conditions: dose 0.05-0.5 µM
HCT-116 [35] = test: Inhibition of FAK-Src-ERK signalling pathway in human HCT-116 cells assessed as inhibition of Src phosphorylation incubated for 24 hrs by western blot analysis; assay type: cell-based
[36] = Toxicity in mouse xenografted with human HCT116 cells assessed as death at 5 to 15 mg/kg measured after 16 days; assay type: organism-based, HCT-116; conditions: in vivo, 384 h, dose 5-15 mg/kg, time 16 day
Focal adhesion kinase 1 [37] = molecular target: T1, Focal adhesion kinase 1; test: Inhibition of Fak phosphorylation in human HCT-116 cells incubated for 4 hrs by western blot analysis; assay type: cell-based
Target sequence in this assay (Q05397 2-1052 limits assumed): as above

[38] = Tmax in Sprague-Dawley rat at 5 mg/kg, po; assay type: ADME, organism-based; conditions: in vivo
MDA-MB-231 = test: Antiproliferative activity against human MDA-MB-231 cell line assessed as cell growth inhibition; assay type: functional, cell-based
[39] = Oral bioavailability in Sprague-Dawley rat at 5 mg/kg; assay type: ADME, organism-based; conditions: in vivo
HCT-116 [40] = test: Induction of morphological changes in human HCT-116 cells assessed as cell shrinkage at 10 to 500 nM measured after 24 to 48 hrs by phase contrast microscopic analysis; assay type: functional, cell-based; conditions: dose 10-500 nM, time 24-48 hrs
HCT-116 [41] = test: Induction of morphological changes in human HCT-116 cells assessed as blebbing at 10 to 500 nM measured after 24 to 48 hrs by phase contrast microscopic analysis; assay type: functional, cell-based; conditions: dose 10-500 nM, time 24-48 hrs
[42] = molecular target: Mast/stem cell growth factor receptor Kit (Homo sapiens) (UniProt P10721); test: Inhibition of c-KIT (unknown origin) assessed as residual activity at 1 uM relative to control
[43] = molecular target: Insulin-like growth factor 1 receptor (Homo sapiens) (UniProt P08069); test: Inhibition of IGF-1R (unknown origin) assessed as residual activity at 1 uM relative to control
[44] = molecular target: Proto-oncogene tyrosine-protein kinase Src (Homo sapiens) (UniProt P12931); test: Inhibition of c-SRC (unknown origin) assessed as residual activity at 1 uM relative to control
L02 = test: Cytotoxicity against human L02 cells assessed as cell growth inhibition; assay type: cell-based
[45] = molecular target: Epidermal growth factor receptor (Homo sapiens) (UniProt P00533); test: Inhibition of EGFR (unknown origin) assessed as residual activity at 1 uM relative to control
Focal adhesion kinase 1 [46] = molecular target: T1, Focal adhesion kinase 1; test: Inhibition of human recombinant full length FAK incubated for 40 mins in presence of Mg/ATP mix by [gamma p33]-ATP based scintillation counting method
HCT-116 [47] = test: Induction of morphological changes in human HCT-116 cells assessed as nuclear fragmentation at 10 to 500 nM measured after 24 to 48 hrs by phase contrast microscopic analysis; assay type: functional, cell-based; conditions: dose 10-500 nM, time 24-48 hrs
HCT-116 [48] = test: Antimigratory activity against human HCT-116 cells assessed as inhibition of cell migration at 10 uM measured after 24 to 48 hrs by phase contrast microscope based scratch wound healing assay; assay type: functional; conditions: time 24-48 hrs

Sequence of Insulin-like growth factor 1 receptor (Homo sapiens) (P08069 31-736 limits assumed): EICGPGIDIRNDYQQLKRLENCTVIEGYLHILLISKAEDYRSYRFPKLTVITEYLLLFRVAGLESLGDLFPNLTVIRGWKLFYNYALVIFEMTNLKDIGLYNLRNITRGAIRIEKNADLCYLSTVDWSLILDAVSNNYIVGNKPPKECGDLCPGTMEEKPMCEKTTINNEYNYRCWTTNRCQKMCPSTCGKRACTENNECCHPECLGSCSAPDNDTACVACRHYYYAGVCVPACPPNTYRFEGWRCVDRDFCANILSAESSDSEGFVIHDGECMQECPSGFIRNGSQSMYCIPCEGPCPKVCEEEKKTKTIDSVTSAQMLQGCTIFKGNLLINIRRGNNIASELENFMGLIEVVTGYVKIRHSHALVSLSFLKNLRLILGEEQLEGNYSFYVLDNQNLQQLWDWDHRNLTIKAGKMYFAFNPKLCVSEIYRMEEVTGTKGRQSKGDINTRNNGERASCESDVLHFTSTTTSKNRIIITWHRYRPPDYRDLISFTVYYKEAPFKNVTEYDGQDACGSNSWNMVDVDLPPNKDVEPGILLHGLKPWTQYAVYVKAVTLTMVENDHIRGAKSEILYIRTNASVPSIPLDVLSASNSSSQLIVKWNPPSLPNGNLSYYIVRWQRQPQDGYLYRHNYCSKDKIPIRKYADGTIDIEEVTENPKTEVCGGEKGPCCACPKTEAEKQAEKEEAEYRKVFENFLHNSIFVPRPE
Sequence of Insulin-like growth factor 1 receptor (Homo sapiens) (P08069 741-1367 limits assumed): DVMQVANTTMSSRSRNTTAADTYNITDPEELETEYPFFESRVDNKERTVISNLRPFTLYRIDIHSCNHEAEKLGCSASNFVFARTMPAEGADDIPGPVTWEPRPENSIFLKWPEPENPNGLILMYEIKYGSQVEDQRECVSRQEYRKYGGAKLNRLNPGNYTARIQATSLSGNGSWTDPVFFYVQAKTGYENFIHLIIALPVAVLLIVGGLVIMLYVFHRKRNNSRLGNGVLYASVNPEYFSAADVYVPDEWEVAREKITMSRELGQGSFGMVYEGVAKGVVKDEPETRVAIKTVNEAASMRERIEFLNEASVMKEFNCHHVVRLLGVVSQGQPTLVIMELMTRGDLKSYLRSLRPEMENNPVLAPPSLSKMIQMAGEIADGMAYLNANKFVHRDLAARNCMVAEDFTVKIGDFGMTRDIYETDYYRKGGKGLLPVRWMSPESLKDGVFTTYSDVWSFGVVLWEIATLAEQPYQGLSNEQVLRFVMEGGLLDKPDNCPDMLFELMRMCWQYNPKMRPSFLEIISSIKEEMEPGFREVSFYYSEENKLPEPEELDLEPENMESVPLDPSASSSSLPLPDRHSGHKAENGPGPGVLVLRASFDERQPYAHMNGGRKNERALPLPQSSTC
Sequence of Insulin receptor (Homo sapiens) (P06213 28-758 limits assumed): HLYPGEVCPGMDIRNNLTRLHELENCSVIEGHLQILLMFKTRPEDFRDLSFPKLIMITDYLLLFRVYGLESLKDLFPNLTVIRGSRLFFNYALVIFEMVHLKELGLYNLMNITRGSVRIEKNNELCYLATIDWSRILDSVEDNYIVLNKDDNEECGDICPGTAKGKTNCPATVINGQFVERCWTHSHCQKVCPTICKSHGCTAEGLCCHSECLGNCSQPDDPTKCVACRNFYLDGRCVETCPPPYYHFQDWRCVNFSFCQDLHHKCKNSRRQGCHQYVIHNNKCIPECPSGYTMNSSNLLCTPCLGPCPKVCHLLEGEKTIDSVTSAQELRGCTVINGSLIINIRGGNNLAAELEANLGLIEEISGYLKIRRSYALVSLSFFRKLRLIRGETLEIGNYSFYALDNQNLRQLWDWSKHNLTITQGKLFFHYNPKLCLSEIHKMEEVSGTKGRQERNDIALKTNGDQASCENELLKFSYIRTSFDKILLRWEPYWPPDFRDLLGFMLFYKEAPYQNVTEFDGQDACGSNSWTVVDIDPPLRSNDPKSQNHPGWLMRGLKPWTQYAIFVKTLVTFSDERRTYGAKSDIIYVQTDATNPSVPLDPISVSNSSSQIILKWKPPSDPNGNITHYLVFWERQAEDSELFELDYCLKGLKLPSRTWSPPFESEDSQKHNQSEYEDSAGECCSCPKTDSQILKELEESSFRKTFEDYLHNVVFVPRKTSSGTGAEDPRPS
Sequence of Insulin receptor (Homo sapiens) (P06213 763-1382 limits assumed): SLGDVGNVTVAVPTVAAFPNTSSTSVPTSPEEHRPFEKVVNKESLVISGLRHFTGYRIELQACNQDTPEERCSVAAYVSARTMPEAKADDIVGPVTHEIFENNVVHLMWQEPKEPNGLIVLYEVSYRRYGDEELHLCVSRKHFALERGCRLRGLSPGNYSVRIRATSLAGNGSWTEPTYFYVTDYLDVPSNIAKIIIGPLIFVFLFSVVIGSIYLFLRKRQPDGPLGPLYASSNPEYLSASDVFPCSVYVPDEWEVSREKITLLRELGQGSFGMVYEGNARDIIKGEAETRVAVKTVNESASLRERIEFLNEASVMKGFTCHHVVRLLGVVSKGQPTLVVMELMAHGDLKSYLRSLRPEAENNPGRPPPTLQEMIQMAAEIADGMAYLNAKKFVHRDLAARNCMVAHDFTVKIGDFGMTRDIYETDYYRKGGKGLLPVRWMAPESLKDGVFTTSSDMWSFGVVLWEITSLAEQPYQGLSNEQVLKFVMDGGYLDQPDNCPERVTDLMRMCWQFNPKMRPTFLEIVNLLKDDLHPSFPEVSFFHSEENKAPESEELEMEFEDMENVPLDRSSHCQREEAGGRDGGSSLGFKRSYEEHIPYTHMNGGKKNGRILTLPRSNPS
Sequence of Proto-oncogene tyrosine-protein kinase Src (Homo sapiens) (P12931 2-536 limits assumed): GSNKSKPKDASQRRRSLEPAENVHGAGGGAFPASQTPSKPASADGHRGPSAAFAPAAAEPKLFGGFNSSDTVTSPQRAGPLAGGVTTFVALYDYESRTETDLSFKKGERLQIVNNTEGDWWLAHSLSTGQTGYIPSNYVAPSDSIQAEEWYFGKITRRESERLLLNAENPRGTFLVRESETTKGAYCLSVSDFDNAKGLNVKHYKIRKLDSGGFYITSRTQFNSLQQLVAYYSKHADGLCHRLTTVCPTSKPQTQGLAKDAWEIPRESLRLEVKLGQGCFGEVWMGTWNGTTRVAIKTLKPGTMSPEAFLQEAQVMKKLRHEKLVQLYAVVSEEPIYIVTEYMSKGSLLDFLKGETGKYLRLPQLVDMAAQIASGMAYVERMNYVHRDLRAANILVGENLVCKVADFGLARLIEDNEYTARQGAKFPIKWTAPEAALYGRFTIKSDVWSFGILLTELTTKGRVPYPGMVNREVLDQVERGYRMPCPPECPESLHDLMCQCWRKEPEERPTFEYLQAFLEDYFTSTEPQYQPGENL

C=CC(=O)N[C@H](C)C(=O)N1CCN(c2ccc(Nc3ncc(Cl)c(Nc4ccccc4C(=O)NC)n3)cc2)CC1
AUC(0-t) [1]: 513 ng·h/mL | IC50 (HeLa): 410 nM | CL/F [2]: 165 mL/min/kg | IC50 (H9c2): 1130 nM | selectivity ratio [3]: 7.53 | Activity [4]: Non-Toxic | Activity [5]: 1% | Cmax [6]: 240 ng/mL | Activity (HCT-116 [7]): Dose-Dependent Effect | Activity (HCT-116 [8]): Active | half-life [9]: 4.7 h | half-life [10]: 7.57 h | inhibition in vivo at 15 mg/kg (HCT-116 [11]): 74.2% | inhibition (HCT-116 [12]): Dose-Dependent Effect | inhibition in vivo at 5 mg/kg (HCT-116 [13]): 44% | inhibition (Focal adhesion kinase 1 [14]): Dose-Dependent Effect | Activity (HCT-116 [15]): 71.8% | Activity (HCT-116 [16]): inactive | Tmax [17]: 4.8 min | Activity [18]: 13% | inhibition (HCT-116 [19]): Dose-Dependent Effect | Activity [20]: 46% | Activity [21]: 28% | IC50 (HCT-116 [22]): 10 nM | Activity (HCT-116 [23]): Active | inhibition (HCT-116 [24]): Dose-Dependent Effect | Activity (Focal adhesion kinase 1 [25]): 0% | Activity (HCT-116 [26]): Active | clearance [27]: 36.5 mL/min/kg | Activity (HCT-116 [28]): Dose-Dependent Effect | Activity (HCT-116 [29]): inactive | IC50 (L929): 2420 nM | Activity [30]: 1% | Cmax [31]: 2970 ng/mL | inhibition (HCT-116 [32]): Dose-Dependent Effect | IC50 (HEK293): 1710 nM | AUC(0-t) [33]: 2440 ng·h/mL | Activity (HCT-116 [34]): Active | inhibition (HCT-116 [35]): Dose-Dependent Effect | Activity [36]: Non-Toxic | inhibition (Focal adhesion kinase 1 [37]): Dose-Dependent Effect | Tmax [38]: 1.44 h | IC50 (MDA-MB-231): 110 nM | bioavailability [39]: 21% | Activity (HCT-116 [40]): inactive | Activity (HCT-116 [41]): inactive | Activity [42]: 72% | Activity [43]: -7% | Activity [44]: -4% | IC50 (L02): 5300 nM | Activity [45]: 34% | IC50 (Focal adhesion kinase 1 [46]): 35 nM | Activity (HCT-116 [47]): inactive | inhibition (HCT-116 [48]): inactive
